Our source for the inhibition values is patent publication US10131653B2, “Heterocyclic compound” (TAKEDA PHARMACEUTICAL COMPANY LIMITED, priority 2015, dated 2018).

The target of one assay is T1, human OX1 receptor (Homo sapiens, UniProt O43613).
T1 construct: expressed in transfected cells; host or cells: CHO cells
T1 sequence (O43613 1-425): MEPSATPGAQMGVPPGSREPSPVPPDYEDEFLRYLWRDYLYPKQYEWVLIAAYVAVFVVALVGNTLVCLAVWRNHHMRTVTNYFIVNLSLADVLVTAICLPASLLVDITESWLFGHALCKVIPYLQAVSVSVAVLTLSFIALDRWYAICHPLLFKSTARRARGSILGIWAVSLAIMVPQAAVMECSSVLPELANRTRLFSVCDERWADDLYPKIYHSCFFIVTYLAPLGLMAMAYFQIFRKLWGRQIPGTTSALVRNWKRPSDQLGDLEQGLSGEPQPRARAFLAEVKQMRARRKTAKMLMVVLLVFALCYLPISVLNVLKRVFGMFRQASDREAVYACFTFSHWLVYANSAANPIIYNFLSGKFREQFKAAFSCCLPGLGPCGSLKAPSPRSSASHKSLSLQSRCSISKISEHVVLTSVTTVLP
The experiment in a line: Measurement of orexin receptor antagonistic activity (calcium fluorescence, FLIPRtetra). The format is cell-based. The following applies: CHO, read-out: Human Orexin1 receptor inhibition (at 10 μM). A digest of the protocol: (§1)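 CHO cells expressing human OX1 or OX2 receptor, cultured one day. Compound in HBSS/20 mM HEPES/0.1% BSA added, then orexin-A at 1 nM final (OX1) or 0.3 nM final (OX2); calcium fluorescence by FLIPRtetra every 1 s for 2 min.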

The next assay concerns the target T2, human OX2 receptor (Homo sapiens, UniProt O43614).
T2 construct: expressed in transfected cells; host or cells: CHO cells
T2 sequence (O43614 1-444): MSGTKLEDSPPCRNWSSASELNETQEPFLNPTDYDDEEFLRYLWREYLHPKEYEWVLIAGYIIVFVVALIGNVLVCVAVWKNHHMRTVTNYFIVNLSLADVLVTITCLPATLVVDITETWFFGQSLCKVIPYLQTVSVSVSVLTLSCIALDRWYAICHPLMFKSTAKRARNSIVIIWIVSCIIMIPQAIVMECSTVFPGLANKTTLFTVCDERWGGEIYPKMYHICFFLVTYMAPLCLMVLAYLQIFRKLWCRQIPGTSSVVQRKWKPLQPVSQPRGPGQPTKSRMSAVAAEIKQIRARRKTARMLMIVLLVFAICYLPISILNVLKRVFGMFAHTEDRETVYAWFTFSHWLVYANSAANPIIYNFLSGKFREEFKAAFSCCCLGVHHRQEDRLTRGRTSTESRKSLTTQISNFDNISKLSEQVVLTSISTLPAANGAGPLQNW
The assay is described as above. The format is cell-based. The settings on record: CHO, read-out: Human Orexin2 receptor inhibition (at 10 μM). An outline of the steps: as §1

The mark [1] stands for this setting: 10 μM test compound, CHO cells expressing human OX1 receptor, OX-A 1 nM.
[2] abbreviates: 10 μM test compound, CHO cells expressing human OX2 receptor, OX-A 0.3 nM.

Read-outs that look alike come from different tables or passages of the source.

With `Cc1cc(N2CCN(C(=O)c3ccc(Br)cc3-n3nccn3)C[C@H](C)O2)nc(C)n1` [Example 205, (4-bromo-2-(2H-1,2,3-triazol-2-yl)phenyl)((7S)-2-(2,6-dimethylpyrimidin-4-yl)-7-methyl-1,2,5-oxadiazepan-5-yl)methanone], the inhibition at 10 µM worked out at 82% on human OX1 receptor (setting [1]) and 100% on human OX2 receptor (setting [2]).

As to `Cc1ccc(-n2nccn2)c(C(=O)N2CCN(c3ncccc3C)OC[C@H]2C)c1` [Example 145, ((6R)-6-methyl-2-(3-methylpyridin-2-yl)-1,2,5-oxadiazepan-5-yl) (5-methyl-2-(2H-1,2,3-triazol-2-yl)phenyl)methanone], the inhibition at 10 µM on human OX1 receptor is 25%; at human OX2 receptor, 82%.

Turning to `COC(=O)c1ccccc1C(=O)N1CCN(c2cc(C)nc(C)n2)O[C@@H](C)C1` [Example 233, methyl 2-(((7S)-2-(2,6-dimethylpyrimidin-4-yl)-7-methyl-1,2,5-oxadiazepan-5-yl)carbonyl)benzoate], the inhibition at 10 µM at human OX1 receptor (setting [1]) came to 17%; at human OX2 receptor (setting [2]), 87%.

As to `Cc1nccc(N2CCN(C(=O)c3cc(Cl)ccc3-c3ncccn3)C[C@H](C)O2)n1` [Example 219, (5-chloro-2-(pyrimidin-2-yl)phenyl)((7S)-7-methyl-2-(2-methylpyrimidin-4-yl)-1,2,5-oxadiazepan-5-yl)methanone], the inhibition at 10 µM on human OX1 receptor (setting [1]) is 72%; at human OX2 receptor (setting [2]) it was 100%.

In the case of `Cc1cc(C)nc(N2CCN(C(=O)c3ccccc3-c3ccco3)CCO2)n1` [Example 81, (2-(4,6-dimethylpyrimidin-2-yl)-1,2,5-oxadiazepan-5-yl) (2-(2-furyl)phenyl)methanone], the inhibition at 10 µM came out at 85% at human OX1 receptor (setting [1]) and 99% on human OX2 receptor (setting [2]).

For `Cc1ccc(-n2nccn2)c(C(=O)N2CCON(c3ncc4ccccc4n3)CC2)c1` [Example 38, (5-methyl-2-(2H-1,2,3-triazol-2-yl)phenyl)(2-(quinazolin-2-yl)-1,2,5-oxadiazepan-5-yl)methanone], the inhibition at 10 µM at human OX1 receptor (setting [1]) was 92%; at human OX2 receptor (setting [2]), 90%.

As for `Cc1nc(N2CCN(C(=O)c3ccccc3-c3ncccn3)[C@H](C)CO2)cc(C(F)(F)F)n1` [Example 214, ((6R)-6-methyl-2-(2-methyl-6-(trifluoromethyl)pyrimidin-4-yl)-1,2,5-oxadiazepan-5-yl)(2-(pyrimidin-2-yl)phenyl)methanone], the inhibition at 10 µM at human OX1 receptor (setting [1]) stood at 55%; at human OX2 receptor (setting [2]), 103%.

With `Cc1cc(N2CCN(C(=O)c3ccccc3-c3cncs3)CCO2)nc(C)n1` [Example 32, (2-(2,6-dimethyl-pyrimidin-4-yl)-1,2,5-oxadiazepan-5-yl) (2-(1,3-thiazol-5-yl)phenyl) methanone], the inhibition at 10 µM on human OX1 receptor (setting [1]) was found to be 38%; on human OX2 receptor (setting [2]), 96%.

Take `COC(=O)c1cc(N2CCN(C(=O)c3cc(Cl)ccc3-n3nccn3)C[C@H](C)O2)nc(C)n1` [Example 207, methyl 6-((7S)-5-(5-chloro-2-(2H-1,2,3-triazol-2-yl)benzoyl)-7-methyl-1,2,5-oxadiazepan-2-yl)-2-methylpyrimidine-4-carboxylate]: the results for the inhibition at 10 µM on human OX1 receptor (setting [1]) and on human OX2 receptor (setting [2]) were 25% and 81%, respectively.

Turning to `Cc1ncc(Cl)c(N2CCN(C(=O)c3cc(Cl)ccc3-n3nccn3)[C@H](C)CO2)n1` [Example 215, ((6R)-2-(5-chloro-2-methylpyrimidin-4-yl)-6-methyl-1,2,5-oxadiazepan-5-yl)(5-chloro-2-(2H-1,2,3-triazol-2-yl)phenyl)methanone], the inhibition at 10 µM on human OX1 receptor (setting [1]) was 40%; at human OX2 receptor (setting [2]) it was 102%.

For the compound `Cc1cc(C)nc(N2CCN(C(=O)c3cccc4nn(C)cc34)CCO2)n1` [Example 69, (2-(4,6-dimethylpyrimidin-2-yl)-1,2,5-oxadiazepan-5-yl) (2-methyl-2H-indazol-4-yl) methanone], the inhibition at 10 µM on human OX1 receptor was found to be 3%; at human OX2 receptor, 45%.

With `Cc1ccc(-n2nccn2)c(C(=O)N2CCN(c3nc4cc(Cl)ccc4o3)OC[C@H]2C)c1` [Example 118, ((6R)-2-(5-chloro-1,3-benzoxazol-2-yl)-6-methyl-1,2,5-oxadiazepan-5-yl)(5-methyl-2-(2H-1,2,3-triazol-2-yl)phenyl)methanone], the inhibition at 10 µM worked out at 101% on human OX1 receptor (setting [1]) and 102% on human OX2 receptor (setting [2]).

As for `Cc1cc(C)nc(N2CCN(C(=O)c3cc(Cl)ccc3Cl)CCO2)n1` [Example 54, (2,5-dichlorophenyl) (2-(4,6-dimethylpyrimidin-2-yl)-1,2,5-oxadiazepan-5-yl)methanone], the inhibition at 10 µM on human OX1 receptor (setting [1]) worked out at 16%; at human OX2 receptor (setting [2]), 84%.

Regarding `Cc1cc(N2CCN(C(=O)c3c(C)cccc3-c3ncccn3)CCO2)nc(C)n1` [Example 216, (2-(2,6-dimethylpyrimidin-4-yl)-1,2,5-oxadiazepan-5-yl)(2-methyl-6-(pyrimidin-2-yl)phenyl)methanone], the inhibition at 10 µM at human OX1 receptor (setting [1]) is 59%; at human OX2 receptor (setting [2]), 101%.

In the case of `Cc1nc(N2C[C@H](C)N(C(=O)c3cc(Cl)ccc3-n3nccn3)[C@H](C)CO2)cc(C(F)(F)F)n1` [Example 183, (5-chloro-2-(2H-1,2,3-triazol-2-yl)phenyl)((4S,6R)-4,6-dimethyl-2-(2-methyl-6-(trifluoromethyl)pyrimidin-4-yl)-1,2,5-oxadiazepan-5-yl)methanone], the figures for the inhibition at 10 µM on human OX1 receptor (setting [1]) and at human OX2 receptor (setting [2]) were 105% and 103%, respectively.

As for `Cc1nc(N2CCN(C(=O)c3ccccc3-c3nccs3)C[C@H](C)O2)cc(C(F)(F)F)n1` [Example 85, ((7S)-7-methyl-2-(2-methyl-6-(trifluoromethyl)pyrimidin-4-yl)-1,2,5-oxadiazepan-5-yl)(2-(1,3-thiazol-2-yl)phenyl)methanone], the inhibition at 10 µM on human OX1 receptor (setting [1]) was 98%; at human OX2 receptor (setting [2]), 102%.

Regarding `Cc1ccc(-n2nccn2)c(C(=O)N2CCN(c3ccc(F)cn3)OC[C@H]2C)c1` [Example 119, ((6R)-2-(5-fluoropyridin-2-yl)-6-methyl-1,2,5-oxadiazepan-5-yl)(5-methyl-2-(2H-1,2,3-triazol-2-yl)phenyl)methanone], the inhibition at 10 µM worked out at 48% on human OX1 receptor (setting [1]) and 92% on human OX2 receptor (setting [2]).

Regarding `Cc1nc(N2CCN(C(=O)c3cc(Cl)ccc3-n3nccn3)C[C@H](C)O2)cc(C(F)(F)F)n1` [Example 3, (5-chloro-2-(2H-1,2,3-triazol-2-yl)phenyl)((7S)-7-methyl-2-(2-methyl-6-(trifluoromethyl)pyrimidin-4-yl)-1,2,5-oxadiazepan-5-yl)methanone], the inhibition at 10 µM was determined as 87% at human OX1 receptor (setting [1]) and 100% at human OX2 receptor (setting [2]).

As to `Cc1nc(N2CCN(C(=O)c3cc(F)ccc3-n3nccn3)[C@H](C)CO2)nc(C)c1Cl` [Example 167, ((6R)-2-(5-chloro-4,6-dimethylpyrimidin-2-yl)-6-methyl-1,2,5-oxadiazepan-5-yl)(5-fluoro-2-(2H-1,2,3-triazol-2-yl)phenyl)methanone], the inhibition at 10 µM is 100% at human OX1 receptor (setting [1]) and 98% on human OX2 receptor (setting [2]).

For `Cc1cc(N2C[C@@H](C)N(C(=O)c3ccccc3-n3nccn3)[C@@H](C)CO2)nc(C)n1` [Example 185, ((4R,6S)-2-(2,6-dimethylpyrimidin-4-yl)-4,6-dimethyl-1,2,5-oxadiazepan-5-yl)(2-(2H-1,2,3-triazol-2-yl)phenyl)methanone], the inhibition at 10 µM on human OX1 receptor (setting [1]) turned out to be 22%; at human OX2 receptor (setting [2]), 31%.

A word on the inhibition: it is the change of the read-out against control, counted positive when it falls.
